Results: patent US20030138429A1, “Compositions and methods for inhibiting metastasis” (priority 2001, published 2003)

System: 1-LN cells
Assay: MMP-9 mRNA levels in 1-LN cells by RT-PCR
Type: cell-based, human
Details: for MMP-9 EXPRESSION mRNA: Yes/No; for Relative MMP-9 mRNA levels (ratio MMP-9 mRNA/GAPDH mRNA): glycoform 0.1 μM, 24 h, versus serum-free medium alone, in words
Procedure: RNA Isolation—To determine changes in MMP-9 mRNA induced by Pg, 1-LN cells were grown in 48 well culture plates (1.7×10^6 cells/well) and incubated with each individual Pg 2 glycoform for 24 h at 37° C. Cell monolayers were then rinsed twice in serum-free RPMI 1640 and total RNA extracted by a single-step method, using RNeach Mini kit (Qiagen, Chatsworth, Calif.), according to the manufacturer's instructions.
Measurement of MMP-9 mRNA Levels by Reverse Transcription-PCR (RT-PCR)—Total RNA was reverse transcribed with 1 μg of RNA in a 20 μl reaction mixture, using M-MLV reverse transcriptase (200 U) and oligo d(T) as primer for 1 h at 42° C. The resulting cDNA (5 μl) was used as a template and a […] segment of the MMP-9 cDNA was amplified, using a 24-mer upstream primer (5′-[…]-3′), identical to positions 2079-2102 and a 29-mer downstream primer (5′-[…]-3′) complimentary to positions 2270-2298 of the human MMP-9 mRNA [45]. A 600-bp segment of the glyceraldehyde phosphate dehydrogenase (GAPDH, constitutive internal control) cDNA was co-amplified, using a 24-mer upstream primer (5′-[…]), identical to positions 212-235 and a 24-mer downstream primer (5′-[…]-3′), complimentary to positions 786-809 of the human GAPDH mRNA [46]. Amplification was carried out in a Techne Thermal Cycler PHC-3 for 28 cycles (one cycle=94° C. for 45 s, 60° C. for 45 s, and 72° C. for 45 s). PCR products were analyzed on a 1.2% agarose-ethidium bromide gel. The gels were photographed and the intensity of the individual MMP-9 and GAPDH mRNA bands measured by laser densitometric scanning, using a Molecular Dynamics Personal Densitometer. Changes in MMP-9 mRNA levels were expressed as a relative ratio of MMP-9 mRNA/GAPDH mRNA band intensities.

Substance | MMP-9 EXPRESSION mRNA | Relative MMP-9 mRNA levels (ratio MMP-9 mRNA/GAPDH mRNA)
Pg 2α: glycoform of human plasminogen type 2 purified from plasma; 1.3 mol sialic acid/mol Pg | No | did not show a significant change
Pg 2β: glycoform of human plasminogen type 2 purified from plasma; 2.2 mol sialic acid/mol Pg | No | did not show a significant change
Pg 2γ: glycoform of human plasminogen type 2 purified from plasma; 2.95 mol sialic acid/mol Pg | No | did not show a significant change
Pg 2δ: glycoform of human plasminogen type 2 purified from plasma; 5.77 mol sialic acid/mol Pg | No | did not show a significant change
Pg 2ε: glycoform of human plasminogen type 2 purified from plasma; 5.34 mol sialic acid/mol Pg | Yes | significant increase
